Key:
[1] = target: T1, KRAS G12D (Homo sapiens (Human), UniProt P01116, G12D); experiment: KRAS G12D Nucleotide Exchange Assay (HTRF); format: biochemical; settings: recombinant GDP-loaded KRAS G12D (20 nM), BIODIPY-labeled GDP (400 nM), recombinant SOS (10 nM), HTRF signal
Protocol: Recombinant GDP-loaded KRAS G12D (20 nM) was treated with compound at room temperature for 20 minutes in assay buffer (10 mM Hepes pH 7.4, 150 mM NaCl, 5 mM MgCl2, 0.0025% Igepal-CA630, 0.05% BSA, 1 mM DTT, 0.5 nM SA-Tb). BIODIPY-labeled GDP (400 nM) and recombinant SOS (10 nM) were added, and the reaction was incubated for 30 minutes.

[2] = target: T1, KRAS G12D; experiment: KRAS G12D RAF Disruption Assay (HTRF); format: biochemical; settings: recombinant GMPPNP-loaded KRAS G12D (5 nM), GST-RAF1 RBD (9 nM), HTRF signal
Protocol: Recombinant GMPPNP-loaded KRAS G12D (5 nM) was treated with compound at room temperature for 20 minutes in assay buffer (50 mM Tris pH 7.5, 100 mM NaCl, 1 mM MgCl2, 1 mM DTT, 100 ug/mL BSA).

T1 sequence (P01116-2 other isoform, or with tags, fused parts or gaps G12D): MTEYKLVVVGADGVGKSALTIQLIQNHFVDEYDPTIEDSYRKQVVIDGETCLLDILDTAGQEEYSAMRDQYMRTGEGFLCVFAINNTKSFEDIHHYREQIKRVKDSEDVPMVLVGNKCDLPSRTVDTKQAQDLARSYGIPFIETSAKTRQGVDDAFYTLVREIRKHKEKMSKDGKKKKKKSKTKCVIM

Row | KRASG12D Nucleotide Exchange Assay (IC50, µM) [1] | KRASG12D RAF Disruption Assay (IC50, µM) [2] | SMILES
1 | 0.006 µM | 0.43 µM | Cc1cc(N)nc(-c2c(Cl)cc3c(N4CC[C@H]5CC[C@@H](C4)N5)nc(OC[C@]45CCCN4C[C@@H](F)C5)nc3c2F)c1C(F)(F)F [Example 4-2, 6-(2-{[(2S,7aR)-2-fluoro-hexahydro-1H-pyrrolizin-7a-yl]methoxy}-6-chloro-4-[(1S,6R)-3,9-diazabicyclo[4.2.1]nonan-3-yl]-8-fluoroquinazolin-7-yl)-4-methyl-5-(trifluoromethyl)pyridin-2-amine]
2 | 0.007 µM | 1.0 µM | Cc1cc(N)nc(-c2c(Cl)cc3c(N4CC[C@H]5CC[C@@H](C4)N5)nc(OCC4(CN(C)C)CC4)nc3c2F)c1C(F)(F)F [Example 10-1, 6-{6-chloro-4-[(1S,6R)-3,9-diazabicyclo[4.2.1]nonan-3-yl]-2-({1-[(dimethylamino)methyl]cyclopropyl}methoxy)-8-fluoroquinazolin-7-yl}-4-methyl-5-(trifluoromethyl)pyridin-2-amine]
3 | 0.01 µM | 2.7 µM | Cc1cc(N)nc(-c2c(Cl)cc3c(N4CC[C@H]5CC[C@@H](C4)N5)nc(OCC4(CN5CCCC(F)C5)CC4)nc3c2F)c1C(F)(F)F (stereo partly drawn) [Example 10-3, 6-{6-chloro-4-[(1S,6R)-3,9-diazabicyclo[4.2.1]nonan-3-yl]-8-fluoro-2-({1-[(3-fluoropiperidin-1-yl)methyl]cyclopropyl}methoxy)quinazolin-7-yl}-4-methyl-5-(trifluoromethyl)pyridin-2-amine]
4 | 0.006 µM | 1.0 µM | Cc1cc(N)nc(-c2c(Cl)cc3c(N4CC[C@H]5CC[C@@H](C4)N5)nc(OCC4(CN5C6CCC5COC6)CC4)nc3c2F)c1C(F)(F)F [Example 10-2, 6-{6-chloro-4-[(1S,6R)-3,9-diazabicyclo[4.2.1]nonan-3-yl]-8-fluoro-2-{[1-({3-oxa-8-azabicyclo[3.2.1]octan-8-yl}methyl)cyclopropyl]methoxy}quinazolin-7-yl}-4-methyl-5-(trifluoromethyl)pyridin-2-amine]
5 | 0.01 µM | 1.0 µM | Oc1cc(-c2ccc3c(N4CC[C@H]5CC[C@@H](C4)N5)nc(OC[C@@]45CCCN4C[C@H](F)C5)nc3c2F)c2c(F)cccc2c1 [Example 11-2, 4-(2-{[(2R,7aS)-2-fluoro-hexahydro-1H-pyrrolizin-7a-yl]methoxy}-4-[(1S,6R)-3,9-diazabicyclo[4.2.1]nonan-3-yl]-8-fluoroquinazolin-7-yl)-5-fluoronaphthalen-2-ol]
6 | 0.04 µM | 5.1 µM | CN1CCC[C@@]2(COc3nc(N4CC[C@H]5CC[C@@H](C4)N5)c4ccc(-c5cc(O)cc6ccccc56)c(F)c4n3)CCC[C@@H]12 [Example 9-1, 4-(2-{[(4aS,7aR)-1-methyl-octahydro-1H-cyclopenta[b]pyridin-4a-yl]methoxy}-4-[(1S,6R)-3,9-diazabicyclo[4.2.1]nonan-3-yl]-8-fluoroquinazolin-7-yl)naphthalen-2-ol]
7 | 0.03 µM | 2.0 µM | CN1CCC[C@@]2(COc3nc(N4CC[C@H]5CC[C@@H](C4)N5)c4ccc(-c5cc(O)cc6cccc(F)c56)c(F)c4n3)CCC[C@@H]12 [Example 9-2, 4-(2-{[(4aS,7aR)-1-methyl-octahydro-1H-cyclopenta[b]pyridin-4a-yl]methoxy}-4-[(1S,6R)-3,9-diazabicyclo[4.2.1]nonan-3-yl]-8-fluoroquinazolin-7-yl)-5-fluoronaphthalen-2-ol]
8 | 0.04 µM | 6.19 µM | Cc1cc(N)nc(-c2c(Cl)cc3c(N4CCC5CCC(C4)N5)nc(OC[C@@H]4CCCN4C)nc3c2F)c1C(F)(F)F (stereo partly drawn) [Example 2-1, 6-(6-chloro-4-{3,9-diazabicyclo[4.2.1]nonan-3-yl}-8-fluoro-2-{[(2S)-1-methylpyrrolidin-2-yl]methoxy}quinazolin-7-yl)-4-methyl-5-(trifluoromethyl)pyridin-2-amine]
9 | 0.03 µM | 6.3 µM | Cc1cc(N)nc(-c2ccc3c(N4CC[C@H]5CC[C@@H](C4)N5)nc(OC[C@@]45CCCN4C[C@H](F)C5)nc3c2F)c1C(F)(F)F [Example 12-1, 6-(2-{[(2R,7aS)-2-fluoro-hexahydro-1H-pyrrolizin-7a-yl]methoxy}-4-[(1S,6R)-3,9-diazabicyclo[4.2.1]nonan-3-yl]-8-fluoroquinazolin-7-yl)-4-methyl-5-(trifluoromethyl)pyridin-2-amine]
10 | 0.14 µM | 10.88 µM | Cc1cc(N)nc(-c2c(Cl)cc3c(N4CC5CCC(C4)NC5)nc(OC[C@@H]4CCCN4C)nc3c2F)c1C(F)(F)F (stereo partly drawn) [Example 2-2, 6-(6-chloro-4-{3,6-diazabicyclo[3.2.2]nonan-3-yl}-8-fluoro-2-{[(2S)-1-methylpyrrolidin-2-yl]methoxy}quinazolin-7-yl)-4-methyl-5-(trifluoromethyl)pyridin-2-amine]
11 | 33.33 µM | 41.99 µM | CN1CCC[C@H]1COc1nc(N2C3CCNCC2CC3)c2cc(Cl)c(-c3cc(O)cc4ccccc34)c(F)c2n1 (stereo partly drawn) [Example 1-1, 4-(6-chloro-4-{3,9-diazabicyclo[4.2.1]nonan-9-yl}-8-fluoro-2-{[(2S)-1-methylpyrrolidin-2-yl]methoxy}quinazolin-7-yl)naphthalen-2-ol]
12 | 2.2 µM | 43.1 µM | Nc1cc2cccc(F)c2c(-c2ccc3c(N4CC[C@H]5CC[C@@H](C4)N5)nc(OC[C@@]45CCCN4C[C@H](F)C5)nc3c2F)n1 [Example 11-4, 1-(2-{[(2R,7aS)-2-fluoro-hexahydro-1H-pyrrolizin-7a-yl]methoxy}-4-[(1S,6R)-3,9-diazabicyclo[4.2.1]nonan-3-yl]-8-fluoroquinazolin-7-yl)-8-fluoroisoquinolin-3-amine]
13 | 0.9 µM | 81 µM | Cc1cc(N)nc(-c2c(Cl)cc3c(N4CC[C@H]5CC[C@@H](C4)N5)nc(OC[C@@]45CCCN4C[C@@H](OC(F)F)C5)nc3c2F)c1C(F)(F)F (single isomer, unassigned) [Example 10-5]
14 | 1.1 µM | >100 µM | Cc1cc(N)nc(-c2ccc3c(N4CC[C@H]5CC[C@@H](C4)N5)nc(OCC45CCCN4CC(F)(F)C5)nc3c2F)c1C(F)(F)F (stereo partly drawn) [Example 12-4, 6-{4-[(1S,6R)-3,9-diazabicyclo[4.2.1]nonan-3-yl]-2-[(2,2-difluoro-hexahydro-1H-pyrrolizin-7a-yl)methoxy]-8-fluoroquinazolin-7-yl}-4-methyl-5-(trifluoromethyl)pyridin-2-amine]
15 | 0.010 µM | 1.81 µM | CO[C@@H]1C[C@@H](COc2nc(N3CC[C@H]4CC[C@@H](C3)N4)c3cc(Cl)c(-c4nc(N)cc(C)c4C(F)(F)F)c(F)c3n2)N(C)C1 [Example 4-4, 6-{6-chloro-4-[(1S,6R)-3,9-diazabicyclo[4.2.1]nonan-3-yl]-8-fluoro-2-{[(2S,4R)-4-methoxy-1-methylpyrrolidin-2-yl]methoxy}quinazolin-7-yl}-4-methyl-5-(trifluoromethyl)pyridin-2-amine]
16 | 0.02 µM | 0.52 µM | Cc1cc(N)nc(-c2c(Cl)cc3c(N4CC[C@H]5CC[C@@H](C4)N5)nc(OC[C@]45CCCN4C[C@H](F)C5)nc3c2F)c1C(F)(F)F [Example 4-3, 6-(2-{[(2R,7aR)-2-fluoro-hexahydro-1H-pyrrolizin-7a-yl]methoxy}-6-chloro-4-[(1S,6R)-3,9-diazabicyclo[4.2.1]nonan-3-yl]-8-fluoroquinazolin-7-yl)-4-methyl-5-(trifluoromethyl)pyridin-2-amine]
17 | 0.03 µM | 3.2 µM | CCc1cccc2cc(O)cc(-c3ccc4c(N5CC[C@H]6CC[C@@H](C5)N6)nc(OC[C@@]56CCCN5C[C@H](F)C6)nc4c3F)c12 [Example 11-5, 4-(2-{[(2R,7aS)-2-fluoro-hexahydro-1H-pyrrolizin-7a-yl]methoxy}-4-[(1S,6R)-3,9-diazabicyclo[4.2.1]nonan-3-yl]-8-fluoroquinazolin-7-yl)-5-ethylnaphthalen-2-ol]
18 | 0.33 µM | 80.0 µM | Cc1cc(N)nc(-c2ccc3c(N4CC[C@H]5CC[C@@H](C4)N5)nc(OC[C@]45CCCN4C[C@H](F)C5)nc3c2F)c1C(F)(F)F [Example 12-2, 6-(2-{[(2R,7aR)-2-fluoro-hexahydro-1H-pyrrolizin-7a-yl]methoxy}-4-[(1S,6R)-3,9-diazabicyclo[4.2.1]nonan-3-yl]-8-fluoroquinazolin-7-yl)-4-methyl-5-(trifluoromethyl)pyridin-2-amine]
19 | 0.006 µM | 0.51 µM | Oc1cc(-c2c(Cl)cc3c(N4CC[C@H]5CC[C@@H](C4)N5)nc(OC[C@@]45CCCN4C[C@H](F)C5)nc3c2F)c2ccccc2c1 (single isomer, unassigned) [Example 8-7]
20 | 0.50 µM | 14.2 µM | Oc1cc(-c2c(Cl)cc3c(N4CC[C@H]5CC[C@@H](C4)N5)nc(OC[C@]45CCCN4C[C@@H](F)C5)nc3c2F)c2ccccc2c1 (single isomer, unassigned) [Example 8-10]
